Laboratory results published in patent publication US11357750B2, “Cysteamine prodrugs” (Children's Hospital Medical Center, priority 2017, dated 2022).
Counter-ions that a name gives are not always drawn.

Legend:
[1] = Pharmacokinetic (PK) study of cysteamine in plasma after oral dosing in rats, blood sampling from portal vein and heart (HPV protocol); type: in vivo, rat
Procedure: Absorption and hepatic extraction information after oral administration and blood sampling from portal vein and heart (HPV protocol) were evaluated.
Blood samples were collected at intervals up to 24 h after dose administration (n=3 animals per each time point).
Sample Collection and Handling: After PO administration, blood samples were collected under deep Isofluorane anesthesia from portal vein and heart of each rat (3 rats per each time point). Blood was collected into potassium EDTA tubes at each of the following time points post-dose (actual times will be recorded): 0.25, 0.5, 1, 2, 4, 6, 8, 12 and 24 hours after dosing. All blood samples were thoroughly, but gently mixed following collection, placed on ice and centrifuged as soon as possible (2000 g for 5 min at 0° C.) to prepare plasma. Duplicate 50 μL aliquots of plasma samples were transferred in micronic tubes.
Plasma Sample Preparation: • 1. Calibration standards (CS) and quality control (QC) plasma samples were prepared by adding 5 μL WS to 45 μL of fresh plasma into micronic tubes using Tecan. • 2. Pseudo QC were prepared by adding 5 μL WSQC to 45 μL of water into micronic tubes using Tecan. • 3. CS, QC, pseudo QC and blank were diluted with 200 μL of KCl solution (1.15%). • 4. Plasma collection was performed by laboratory automation system (LAS). 50 μL whole plasma was transferred into micronic tubes containing 200 μL of KCl solution (1.15%). • 5. All samples were added […] with 20 μL of glutathione ethyl ester as internal standard (0.01 mg/mL in water) and 100 μL of Ellman's reagent (10 mM in water). • 6. […]
Plasma sample analysis: Samples were assayed for cysteamine using a method based on protein precipitation followed by HPLC/MS-MS analysis. Study samples were analyzed in discrete batches together with calibration standards (CS), used to construct calibration curves and blank samples (including also double blanks), used to assess specificity. […] The presence of prodrug and its products were monitored but not quantified in both portal and systemic plasma. […]

[2] = system: intracellular cystine (circulating white blood cells); conditions: taken regularly; measured in circulating white blood cells; cited from earlier work
[3] = cited from earlier work

In the case of Cl.NCCS.OCC(O)CO [Glycerol Cysteamine Hydrochloride, glycerol cysteamine hydrochloride], the “Release of cysteamine hydrochloride from the glycerol prodrug moiety (conclusion)” value ([1]; rats PO, gastrointestinal (GI) tract) is reported as “fully separated from the glycerol prodrug moiety in the gastrointestinal (GI) tract” and the “Cysteamine levels in portal plasma after prodrug administration” value ([1]; rats PO, versus cysteamine hydrochloride administration) is reported as “comparable to those observed after cysteamine hydrochloride administration”.
For NCCS [cysteamine, 2-aminoethane-1-thiol], the “Depletion of intracellular cystine” value [2] is listed as “up to 90%”, the “Duration of activity (short half-life)” value ([3]; in vivo) is listed as 5 to 6 h and the Estimated bioavailability ([3]; oral administration, extensive first pass metabolism) is listed as 10-30%.
In the case of NCCS [Cysteamine Hydrochloride, cysteamine hydrochloride], the “Fa % (fraction absorbed)” value ([1]; male, CD, rat, in vivo, po) is reported as 16.1%.
